Measurements published in patent US9187467B2, “2-phenyl benzothiazole linked imidazole compounds as potential anticancer agents and process for the preparation thereof” (Council of Scientific and Industrial Research, priority 2012, dated 2015).

Assays:
SR = assay: SRB anticancer assay, leukemia; type: cell-based, human; conditions: Homo sapiens, 48 h
A549/ATCC = assay: SRB anticancer assay, non-small lung; type: cell-based, human; set-up: Log10GI50: unit not given here
NCI-H226 = assay: SRB anticancer assay, non-small lung; type: cell-based, human; conditions: Homo sapiens, NCI-H226, 48 h
NCI-H23 = assay: SRB anticancer assay, non-small lung; type: cell-based, human; conditions: for GI50: Homo sapiens, NCI-H23, 48 h
NCI-H322M = assay: SRB anticancer assay, non-small lung; type: cell-based, human; conditions: Homo sapiens, 48 h
NCI-H460 = assay: SRB anticancer assay, non-small lung; type: cell-based, human; conditions: Homo sapiens, NCI-H460, 48 h
NCI-H522 = assay: SRB anticancer assay, non-small lung; type: cell-based, human; set-up: Log10GI50: unit not given here; conditions: for GI50: Homo sapiens, NCI-H522, 48 h
HT29 = assay: SRB anticancer assay, colon; type: cell-based, human; conditions: Homo sapiens, HT-29; HT29, 48 h
SF-268 = assay: SRB anticancer assay, CNS; type: cell-based, human; set-up: Log10GI50: unit not given here; conditions: for GI50: Homo sapiens, SF-268, 48 h
SF-295 = assay: SRB anticancer assay, CNS; type: cell-based, human; set-up: Log10GI50: unit not given here; conditions: for GI50: Homo sapiens, SF-295, 48 h
SF-539 = assay: SRB anticancer assay, CNS; type: cell-based, human; set-up: Log10GI50: unit not given here; conditions: for GI50: Homo sapiens, SF-539, 48 h
IGROV1 = assay: SRB anticancer assay, ovarian; type: cell-based, human; conditions: Homo sapiens, IGROV-1; IGROV1, 48 h
OVCAR-3 = assay: SRB anticancer assay, ovarian; type: cell-based, human; set-up: Log10GI50: unit not given here; conditions: for GI50: Homo sapiens, OVCAR-3, 48 h
OVCAR-4 = assay: SRB anticancer assay, ovarian; type: cell-based, human; conditions: Homo sapiens, OVCAR-4, 48 h
OVCAR-8 = assay: SRB anticancer assay, ovarian; type: cell-based, human; set-up: Log10GI50: unit not given here; conditions: for GI50: Homo sapiens, OVCAR-8, 48 h
NCI/ADR-RES = assay: SRB anticancer assay, ovarian; type: cell-based, human; set-up: Log10GI50: unit not given here; conditions: for GI50: Homo sapiens, NCI/ADR-RES, 48 h; for Log10GI50: present compounds
SK-OV-3 = assay: SRB anticancer assay, ovarian; type: cell-based, human; conditions: Homo sapiens, SK-OV-3, 48 h
A498 = assay: SRB anticancer assay, renal; type: cell-based, human; set-up: Log10GI50: unit not given here; conditions: for GI50: Homo sapiens, A498, 48 h
ACHN = assay: SRB anticancer assay, renal; type: cell-based, human; set-up: Log10GI50: unit not given here; conditions: for GI50: Homo sapiens, 48 h
SN12C = assay: SRB anticancer assay, renal; type: cell-based, human; set-up: Log10GI50: unit not given here; conditions: for GI50: Homo sapiens, 48 h
TK-10 = assay: SRB anticancer assay, renal; type: cell-based, human; conditions: Homo sapiens, TK-10, 48 h
PC-3 = assay: SRB anticancer assay, prostate; type: cell-based, human; set-up: Log10GI50: unit not given here
MCF7 = assay: SRB anticancer assay, breast; type: cell-based, human; conditions: Homo sapiens, MCF7, 48 h
HS 578T = assay: SRB anticancer assay, breast; type: cell-based, human; set-up: Log10GI50: unit not given here
T-47D = assay: SRB anticancer assay, breast; type: cell-based; conditions: Homo sapiens, T47D, 48 h
LOX IMVI = assay: SRB anticancer assay, melanoma; type: cell-based, human; set-up: Log10GI50: unit not given here; conditions: for GI50: Homo sapiens, 48 h
SK-MEL-28 = assay: SRB anticancer assay, melanoma; type: cell-based, human; set-up: Log10GI50: unit not given here; conditions: for GI50: Homo sapiens, SK-MEL-28, 48 h
SK-MEL-5 = assay: SRB anticancer assay, melanoma; type: cell-based, human; conditions: Homo sapiens, SK-MEL-5, 48 h
UACC-257 = assay: SRB anticancer assay, melanoma; type: cell-based, human; conditions: for GI50: Homo sapiens, UACC-257, 48 h
UACC-62 = assay: SRB anticancer assay, melanoma; type: cell-based, human; conditions: for GI50: Homo sapiens, UACC-62, 48 h
K562 (Leukemia) cells = assay: Cell cycle distribution by flow cytometry; type: cell-based
Description: (§1) In order to investigate the mechanism underlying the anti-proliferative effect of the compounds the cell cycle distribution was analyzed in K562 (Leukemia) and MCF-7 (Breast carcinoma) cell lines by flow cytometry. Compounds CA-4, 21a, 21d, 4c, 6d, 6e, 6f, 7d, 7h and 7j have shown 1.72%, 14%, 12%, 14%, 12%, 14%, 14%, 16%, 16% &12% in K562 cells and 49.63%, 21%, 20%, 18%, 21%, 21%, 21%, 24%, 23% and 23% in MCF-7 cell line respectively. […] Thus compound 7d was considered for further studies (FIG. 1).

[1] = system: MCF-7 (Breast carcinoma) cells; assay: Cell cycle distribution by flow cytometry (FACS); type: cell-based; conditions: MCF-7 cells, 2 μM, 24h
Description: FIG. 1 represents FACS analysis of cell cycle distribution of MCF-7 cells after treatment with compounds CA-4, 21a, 21d, 4c, 6d, 6e, 6f, 7d, 7h and 7j at 2 μM concentration for 24h and control cells are the cells treated with DMSO (0.25%).
as §1

KM12 = assay: SRB anticancer assay, colon; type: cell-based, human; conditions: Homo sapiens, KM12, 48 h

## COc1cc2nc(-c3ccc(-n4cncc4-c4ccc(N)cc4)cc3)sc2c(OC)c1OC [Compound 7h, 4-(1-(4-(5,6,7-Trimethoxybenzo[d]thiazol-2-yl)phenyl)-1H-imidazol-5-yl)benzenamine]
SR
  GI50: 1400 nM
A549/ATCC; Homo sapiens, 48 h
  GI50: 3.14 µM
A549/ATCC; present compounds
  Log10GI50: −5.50
NCI-H226
  GI50: 4.73 µM
NCI-H23
  GI50: 3.87 µM
NCI-H23; NCI-H23, present compounds
  Log10GI50: −5.41 log10(M)
NCI-H322M
  GI50: 2070 nM
NCI-H460
  GI50: 5.13 µM
NCI-H522
  GI50: 2740 nM
NCI-H522; NCI-H522, present compounds
  Log10GI50: −5.56
HT29
  GI50: 2790 nM
SF-268
  GI50: 12.3 µM
SF-268; SF-268, present compounds
  Log10GI50: −4.91
SF-295
  GI50: 1530 nM
SF-295; SF-295, present compounds
  Log10GI50: −5.82
SF-539
  GI50: 7.14 µM
SF-539; SF-539, present compounds
  Log10GI50: −5.15
IGROV1
  GI50: 2.63 µM
OVCAR-3
  GI50: 2730 nM
OVCAR-3; OVCAR-3, present compounds
  Log10GI50: −5.56
OVCAR-4
  GI50: 3.6 µM
OVCAR-8
  GI50: 4.23 µM
OVCAR-8; OVCAR-8, present compounds
  Log10GI50: −5.37
NCI/ADR-RES
  GI50: 1610 nM
NCI/ADR-RES; NCI/ADR-RES (row head NCI/ADR-)
  Log10GI50: −5.79
NCI/ADR-RES; listed as head printed RES (second line of NCI/ADR-RES)
  Log10GI50: −4.93
SK-OV-3
  GI50: 11.7 µM
A498; A498, present compounds
  Log10GI50: −5.67
A498
  GI50: 2130 nM
ACHN
  GI50: 8.56 µM
ACHN; present compounds
  Log10GI50: −5.07
SN12C
  GI50: 8.95 µM
SN12C; present compounds
  Log10GI50: −5.05
TK-10
  GI50: 4.93 µM
PC-3; Homo sapiens, PC-3, 48 h
  GI50: 3.02 µM
PC-3; PC-3, present compounds
  Log10GI50: −5.52
MCF7
  GI50: 3.02 µM
HS 578T; present compounds
  Log10GI50: −5.27
T-47D
  GI50: 1820 nM
LOX IMVI
  GI50: 3.65 µM
LOX IMVI; present compounds
  Log10GI50: −5.44
SK-MEL-28
  GI50: > 100 µM
SK-MEL-28; SK-MEL-28, present compounds
  Log10GI50: >−4.0
SK-MEL-5
  GI50: 2.74 µM
UACC-257
  GI50: 6.4 µM
UACC-257; UACC-257, present compounds
  Log10GI50: −5.19 log10(M)
UACC-62
  GI50: 5.45 µM
UACC-62; UACC-62, present compounds
  Log10GI50: −5.26 log10 M
K562 (Leukemia) cells
  cells in G2/M phase: 16%
[1]
  cells in G2/M phase: 23%

## COc1cc(OC)cc(-c2cncn2-c2ccc(-c3nc4cc(OC)cc(OC)c4s3)cc2)c1 [Compound 6d, 2-(4-(5-(3,5-Dimethoxyphenyl)-1H-imidazol-1-yl)phenyl)-5,7-dimethoxybenzo[d]thiazole]
SR
  GI50: 3300 nM
NCI-H226
  GI50: 18.5 µM
NCI-H23
  GI50: 10.3 µM
NCI-H322M
  GI50: > 100000 nM
NCI-H460
  GI50: 4.41 µM
NCI-H522
  GI50: 2490 nM
KM12
  GI50: 4.52 µM
SF-268
  GI50: 11.3 µM
SF-295
  GI50: 2400 nM
SF-539
  GI50: 5.76 µM
IGROV1
  GI50: 5.07 µM
OVCAR-3
  GI50: 2870 nM
OVCAR-8
  GI50: 14.5 µM
NCI/ADR-RES
  GI50: 2580 nM
SK-OV-3
  GI50: 4.69 µM
A498
  GI50: 3150 nM
ACHN
  GI50: > 100 µM
SN12C
  GI50: > 100 µM
TK-10
  GI50: 16.8 µM
MCF7
  GI50: 3.82 µM
HS 578T; Homo sapiens, 48 h
  GI50: 3.09 µM
T-47D
  GI50: 3170 nM
LOX IMVI
  GI50: 5.48 µM
SK-MEL-28
  GI50: > 100 µM
SK-MEL-5
  GI50: 3.29 µM
UACC-257
  GI50: > 100 µM
UACC-62
  GI50: 4.75 µM
K562 (Leukemia) cells
  cells in G2/M phase: 12%
[1]
  cells in G2/M phase: 21%
